According to article PMC6275283, “Inhibitors of BMP‐1/tolloid‐like proteinases: efficacy, selectivity and cellular toxicity” (FEBS Open Bio, 2018):
Like-named read-outs stand apart in the source and are kept apart here.

Key:
[1] = biological target: T1, Meprin β (Homo sapiens, UniProt Q16820); test: fluorogenic peptide cleavage assay; format: biochemical
T1 construct: gene MEP1B
T1 sequence (Q16820 62-652): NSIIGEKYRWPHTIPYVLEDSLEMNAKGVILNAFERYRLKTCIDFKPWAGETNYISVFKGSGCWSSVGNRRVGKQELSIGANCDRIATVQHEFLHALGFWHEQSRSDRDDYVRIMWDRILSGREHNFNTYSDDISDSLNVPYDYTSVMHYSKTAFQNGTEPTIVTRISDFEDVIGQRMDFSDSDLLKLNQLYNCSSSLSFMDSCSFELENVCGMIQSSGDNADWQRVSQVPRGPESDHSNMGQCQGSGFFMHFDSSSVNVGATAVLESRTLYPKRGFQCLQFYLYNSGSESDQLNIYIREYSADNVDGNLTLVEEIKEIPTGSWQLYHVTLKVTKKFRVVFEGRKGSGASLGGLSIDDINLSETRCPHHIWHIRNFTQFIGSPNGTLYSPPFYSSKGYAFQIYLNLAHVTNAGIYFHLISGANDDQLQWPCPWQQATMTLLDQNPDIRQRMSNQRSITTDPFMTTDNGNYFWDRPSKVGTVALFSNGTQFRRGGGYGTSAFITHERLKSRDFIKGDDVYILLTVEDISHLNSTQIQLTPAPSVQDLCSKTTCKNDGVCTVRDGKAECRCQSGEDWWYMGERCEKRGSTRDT
Description: fluorogenic peptide cleavage assay on Meprin β

[2] = biological target: T2, Meprin α (Homo sapiens, UniProt Q16819); test: fluorogenic peptide cleavage assay; format: biochemical
T2 construct: gene MEP1A
T2 sequence (Q16819 66-712): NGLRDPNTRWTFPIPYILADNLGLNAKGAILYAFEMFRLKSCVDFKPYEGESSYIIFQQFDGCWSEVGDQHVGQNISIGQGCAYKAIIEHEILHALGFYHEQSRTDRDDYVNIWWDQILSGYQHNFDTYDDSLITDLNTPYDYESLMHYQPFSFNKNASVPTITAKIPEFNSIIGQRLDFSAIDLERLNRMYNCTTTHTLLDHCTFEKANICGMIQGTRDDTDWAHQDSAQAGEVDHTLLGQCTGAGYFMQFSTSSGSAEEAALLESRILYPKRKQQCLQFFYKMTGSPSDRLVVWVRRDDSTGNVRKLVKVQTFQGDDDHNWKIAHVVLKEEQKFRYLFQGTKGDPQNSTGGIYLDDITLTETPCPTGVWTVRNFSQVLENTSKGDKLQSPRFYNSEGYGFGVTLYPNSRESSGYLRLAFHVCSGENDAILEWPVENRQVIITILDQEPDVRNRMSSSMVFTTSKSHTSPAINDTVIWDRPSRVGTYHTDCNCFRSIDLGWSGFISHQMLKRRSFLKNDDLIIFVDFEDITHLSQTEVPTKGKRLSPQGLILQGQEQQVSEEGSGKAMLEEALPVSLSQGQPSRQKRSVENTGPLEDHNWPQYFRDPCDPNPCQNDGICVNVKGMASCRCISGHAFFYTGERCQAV
Description: fluorogenic peptide cleavage assay on Meprin α

[3] = […] Mca-YVADAPK-Dnp, […] enzyme, […] HEPES pH […] NaCl, […] CaCl2, […] °C

IC50 [1] | IC50 [2] | IC50 [1, 3] | IC50 [2, 3] | Compound
> 10000 nM | 185 ± 12 nM |  |  | CNC(=O)[C@H](Cc1c[nH]c2ccccc12)NC(=O)[C@@H](CC(=O)NO)CC(C)C [GM6001]
744 ± 29 nM | 55 ± 11 nM |  |  | CCCCC[C@H](CC(=O)NO)C(=O)N[C@H](C(=O)N1CCC[C@H]1CO)C(C)C [Actinonin]
> 10000 nM | 393 ± 82 nM |  |  | COc1ccc(CCN(CCC(=O)NO)S(=O)(=O)c2ccc(NC(=O)NCCc3ccccc3)cc2)cc1 [S33A]
 |  | > 10000 nM | > 1000 nM | FG‐2575
